Measurements as given in ChEMBL document CHEMBL1201862, “PubChem BioAssay data set” (2004).
“And” between values parts separate entries of the source, which are not always exact repeats. Equal values may be shown once.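 Five compound concentrations were applied to cells in 96-well plates for 48 hours; endpoints were derived by simple linear interpolation of the resulting dose-response curve. Abbreviation: GI50, concentration required for 50% inhibition of growth.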 The source made the active and inactive calls. No stated cut-off is given here; in the data, active = GI50 up to about 1.1 µM and inactive = higher.

Legend:
Test in all cases: NCI anticancer screen, dose series, 48 h
SN12C = test system: SN12C
786-0 = test system: 786-0
M14 = test system: M14
NCI-H226 = test system: NCI-H226
CCRF-CEM = test system: CCRF-CEM
KM12 = test system: KM12
TK-10 = test system: TK-10
UO-31 = test system: UO-31
COLO 205 = test system: COLO 205
SK-OV-3 = test system: SK-OV-3
NCI-H522 = test system: NCI-H522
A549 = test system: A549
SK-MEL-2 = test system: SK-MEL-2
IGROV-1 = test system: IGROV-1
HL-60 = test system: HL-60
HT-29 = test system: HT-29
EKVX = test system: EKVX
SK-MEL-5 = test system: SK-MEL-5
OVCAR-8 = test system: OVCAR-8
DU-145 = test system: DU-145

| SMILES | GI50 (SN12C) | GI50 (786-0) | GI50 (M14) | GI50 (NCI-H226) | GI50 (CCRF-CEM) | GI50 (KM12) | GI50 (TK-10) | GI50 (UO-31) | GI50 (COLO 205) | GI50 (SK-OV-3) | GI50 (NCI-H522) | GI50 (A549) | GI50 (SK-MEL-2) | GI50 (IGROV-1) | GI50 (HL-60) | GI50 (HT-29) | GI50 (EKVX) | GI50 (SK-MEL-5) | GI50 (OVCAR-8) | GI50 (DU-145) |
| --- | --- | --- | --- | --- | --- | --- | --- | --- | --- | --- | --- | --- | --- | --- | --- | --- | --- | --- | --- | --- |
| O=C(/C=C/c1ccccc1)NC1C=Nc2ccc(Cl)cc2NC1=O (stereo not drawn) | 24.8 µM (inactive) | 23.2 µM (inactive) | 21.9 µM (inactive) | 30.8 µM (inactive) | 3.52 µM (inactive) | 22.2 µM (inactive) | 36 µM (inactive) | 11.8 µM (inactive) | 17.1 µM (inactive) | 25.1 µM (inactive) | 9.64 µM (inactive) | 28.2 µM (inactive) | 30.5 µM (inactive) | 15 µM (inactive) | 5.3 µM (inactive) | 30 µM (inactive) | 31.3 µM (inactive) | 16.5 µM (inactive) | 29.5 µM (inactive) | – |
| O=C(/C=C\c1cccc2ccccc12)c1cccc2ccccc12 | 15.5 µM (inactive) | 4.4 µM (inactive) | 12.2 µM (inactive) | 9.16 µM (inactive) | 3.3 µM (inactive) | 6.55 µM (inactive) | > 10 µM (inactive) | 14.3 µM (inactive) | > 10 µM (inactive) | > 10 µM (inactive) | 7.64 µM (inactive) | 13.1 µM (inactive) | 18.6 µM (inactive) | 8.17 µM (inactive) | 3.64 µM (inactive) | 5.25 µM (inactive) | 14.3 µM (inactive) | 12.7 µM (inactive) | 5.82 µM (inactive) | – |
| CCOc1ccccc1NC(=O)C1=C(C)NC(C)=C(C(=O)Nc2ccccc2OCC)C1c1ccc(NC(C)=O)cc1 | 30.2 µM (inactive) | 29.6 µM (inactive) | 29.9 µM (inactive) | 27.7 µM (inactive) | 61.4 µM (inactive) | 24.8 µM (inactive) | 47.6 µM (inactive) | 23.6 µM (inactive) | 16.7 µM (inactive) | 11.5 µM (inactive) | 6.25 µM (inactive) | 46.6 µM (inactive) | 17.9 µM (inactive) | 47.4 µM (inactive) | 31.6 µM (inactive) | 40.6 µM (inactive) | 38.6 µM (inactive) | 40.7 µM (inactive) | 73.5 µM (inactive) | – |
| O=C1Oc2cc3c(c4cccc1c24)OCN(c1ccc(Cl)cc1)C3 | 13.6 µM (inactive) | 14.3 µM (inactive) | 6.97 µM (inactive) | > 100 µM (inactive) | 9.23 µM (inactive) | > 44.5 µM (inactive) | > 100 µM (inactive) | 3.03 µM (inactive) | 7.82 µM (inactive) | > 100 µM (inactive) | 15.2 µM (inactive) | 10.2 µM (inactive) | 1.83 µM (inactive) | > 100 µM (inactive) | 4.82 µM (inactive) | 11.4 µM (inactive) | > 58.2 µM (inactive) | 1.37 µM (inactive) | 11.7 µM (inactive) | – |
| COC(=O)C1CCC(=S)N1C(=O)OCc1ccccc1 (stereo not drawn) | – | > 100 µM (inactive) | > 100 µM (inactive) | – | 3.61 µM (inactive) | > 100 µM (inactive) | > 100 µM (inactive) | 95.7 µM (inactive) | > 100 µM (inactive) | > 100 µM (inactive) | 86.7 µM (inactive) | 71 µM (inactive) | > 100 µM (inactive) | > 100 µM (inactive) | – | > 100 µM (inactive) | 49 µM (inactive) | > 100 µM (inactive) | > 100 µM (inactive) | > 100 µM (inactive) |
| COc1ccc(Nc2nc(NNC(=O)Cc3ccccc3)nc(NNC(=O)c3ccncc3)n2)cc1 | > 10 µM (inactive) | > 10 µM (inactive) | > 10 µM (inactive) | – | > 10 µM (inactive) | > 10 µM (inactive) | > 10 µM (inactive) | > 10 µM (inactive) | > 10 µM (inactive) | > 10 µM (inactive) | > 10 µM (inactive) | > 10 µM (inactive) | – | > 10 µM (inactive) | – | > 10 µM (inactive) | 0.955 µM (active) | > 10 µM (inactive) | > 10 µM (inactive) | > 10 µM (inactive) |
| CCN(CC)CCNC(=O)c1nn(C)c(=S)[nH]c1=S | > 100 µM (inactive) | > 100 µM (inactive) | > 100 µM (inactive) | > 100 µM (inactive) | > 100 µM (inactive) | > 100 µM (inactive) | > 100 µM (inactive) | > 100 µM (inactive) | > 100 µM (inactive) | > 100 µM (inactive) | > 100 µM (inactive) | > 100 µM (inactive) | > 100 µM (inactive) | > 100 µM (inactive) | > 100 µM (inactive) | > 100 µM (inactive) | > 100 µM (inactive) | > 100 µM (inactive) | > 100 µM (inactive) | – |
| O=c1cc2n(c(=O)[nH]1)C1OC(C(O)C1O)[C@@H]2CCO (stereo partly drawn) | > 100 µM (inactive) | > 100 µM (inactive) | > 100 µM (inactive) | > 10 µM (inactive) | > 100 µM (inactive) | > 100 µM (inactive) | > 100 µM (inactive) | > 100 µM (inactive) | – | > 100 µM (inactive) | > 100 µM (inactive) | > 100 µM (inactive) | > 100 µM (inactive) | > 100 µM (inactive) | > 100 µM (inactive) | > 100 µM (inactive) | > 100 µM (inactive) | > 100 µM (inactive) | > 100 µM (inactive) | – |
| N#CC(NNC(=O)c1ccccc1O)c1ccccc1 (stereo not drawn) | 9.08 µM (inactive) | 2.5 µM (inactive) | 0.942 µM (active) | 5.87 µM (inactive) | 0.855 µM (active) | 1.61 µM (inactive) | 4.3 µM (inactive) | 0.562 µM (active) | 33.7 µM (inactive) | 3.62 µM (inactive) | 10.2 µM (inactive) | 0.423 µM (active) | 2.55 µM (inactive) | 1.13 µM (inactive) | 1.8 µM (inactive) | 26 µM (inactive) | – | 16.1 µM (inactive) | 2.81 µM (inactive) | – |
| O[C@]12c3ccccc3C1CCCCC2N1CCOCC1 (stereo partly drawn) | > 100 µM (inactive) | > 100 µM (inactive) | > 100 µM (inactive) | > 100 µM (inactive) | > 100 µM (inactive) | > 100 µM (inactive) | > 100 µM (inactive) | > 100 µM (inactive) | > 100 µM (inactive) | > 100 µM (inactive) | > 100 µM (inactive) | > 100 µM (inactive) | > 100 µM (inactive) | – | > 100 µM (inactive) | > 100 µM (inactive) | > 100 µM (inactive) | > 100 µM (inactive) | > 100 µM (inactive) | – |
| CC[n+]1c(/C=C/c2ccc(N(CCCl)CCCl)cc2)ccc2cc(I)ccc21 | 1.28 µM (inactive) | 1.24 µM (inactive) | 1.21 µM (inactive) | 1.24 µM (inactive) | 0.319 µM (active) | 1.08 µM (active) | 2.05 µM (inactive) | 5.93 µM (inactive) | 0.191 µM (active) | 1.31 µM (inactive) | 0.312 µM (active) | 3.04 µM (inactive) | 0.372 µM (active) | 0.587 µM (active) | 0.217 µM (active) | 1.84 µM (inactive) | 2.74 µM (inactive) | 0.552 µM (active) | 0.771 µM (active) | – |
| CC(O)C1OC(n2ccc(=O)[nH]c2=O)CC1n1cncn1 (stereo not drawn) | > 100 µM (inactive) | > 100 µM (inactive) | > 100 µM (inactive) | 11.8 µM (inactive) | > 100 µM (inactive) | > 100 µM (inactive) | > 100 µM (inactive) | > 100 µM (inactive) and 98.9 µM (inactive) | > 100 µM (inactive) | > 100 µM (inactive) | > 100 µM (inactive) | > 100 µM (inactive) | > 100 µM (inactive) | > 100 µM (inactive) | > 100 µM (inactive) | > 100 µM (inactive) | > 100 µM (inactive) | > 100 µM (inactive) | > 100 µM (inactive) | – |
| Cc1ccc(/C=N/Nc2cnccn2)s1 | 42.6 µM (inactive) | > 100 µM (inactive) | > 100 µM (inactive) | 38.7 µM (inactive) | > 100 µM (inactive) | > 100 µM (inactive) | > 100 µM (inactive) | > 100 µM (inactive) | > 100 µM (inactive) | > 100 µM (inactive) | 83 µM (inactive) | > 100 µM (inactive) | > 100 µM (inactive) | > 100 µM (inactive) | > 100 µM (inactive) | 47.1 µM (inactive) | 80.5 µM (inactive) | > 100 µM (inactive) | > 100 µM (inactive) | – |
| CCCc1c(C(=O)OCC)[nH]c(-c2ccc(-c3[nH]c(C(=O)OCC)c(CCC)c3C(=O)OCC)s2)c1C(=O)OCC | > 100 µM (inactive) | 21.8 µM (inactive) | 49.8 µM (inactive) | 72.1 µM (inactive) | > 100 µM (inactive) | 22.1 µM (inactive) | 50.1 µM (inactive) | 8.97 µM (inactive) | > 100 µM (inactive) | 27.1 µM (inactive) | 32.6 µM (inactive) | 52.4 µM (inactive) | 15.7 µM (inactive) | 58.2 µM (inactive) | 46 µM (inactive) | 38.8 µM (inactive) | 62.4 µM (inactive) | 35.2 µM (inactive) | 48 µM (inactive) | – |
| COC1=C(OC)C(=O)c2cc(SC)c(=O)c(SC)cc2C1=O | 14.7 µM (inactive) | 17.3 µM (inactive) | 17.2 µM (inactive) | 13.5 µM (inactive) | 2.34 µM (inactive) | 96.4 µM (inactive) | 59 µM (inactive) | 19.8 µM (inactive) | > 100 µM (inactive) | 36.4 µM (inactive) | 17.1 µM (inactive) | 22.6 µM (inactive) | 3.85 µM (inactive) | 33.1 µM (inactive) | 1.68 µM (inactive) | > 100 µM (inactive) | 21.2 µM (inactive) | 12.4 µM (inactive) | 12.1 µM (inactive) | – |
